Columns and labels:
[1] = Induction of NO release in phosphate buffer at pH 1 at 100 uM by Griess assay; format: physicochemical; settings: pH 1, 100 µM
Rattus norvegicus [2] = experiment: Antiinflammatory activity in albino rat assessed as inhibition of carrageenan-induced paw edema at 100 mg/kg, po treated for 30 mins measured after 2 hrs of carrageenan challenge; format: functional
Rattus norvegicus [3] = experiment: Antiinflammatory activity in albino rat assessed as inhibition of carrageenan-induced paw edema at 100 mg/kg, po treated for 30 mins measured after 1 hr of carrageenan challenge; format: functional
Rattus norvegicus [4] = experiment: Antiinflammatory activity in albino rat assessed as inhibition of carrageenan-induced paw edema at 100 mg/kg, po treated for 30 mins measured after 3 hrs of carrageenan challenge; format: functional
Rattus norvegicus [5] = experiment: Gastrotoxicity in albino rat assessed as ulcer index at 100 mg/kg, po after 5 hrs; format: toxicity, organism-based; design: dose 100 mg/kg, route oral; settings: in vivo
[6] = Induction of NO release per mol of compound in phosphate buffer at pH 7.4 at 100 uM after 3 hrs by Griess assay; format: physicochemical; settings: pH 7.4, 3 h
Rattus norvegicus [7] = experiment: Reduction in 1-(2-Bromopropionyl)-5-(2-furyl)-4,5-dihydro-3-(3,4-dimethoxyphenyl)-1H-pyrazole-induced ulcer in albino rat at 100 mg/kg, po after 5 hrs; format: functional; design: scale not given: the % may be the effect or the level left
Rattus norvegicus [8] = experiment: Reduction in 5-(2-furyl)-4,5-dihydro-3-(3,4-dimethoxyphenyl)-1H-pyrazole-induced ulcer in albino rat at 100 mg/kg, po after 5 hrs; format: functional; design: scale not given: the % may be the effect or the level left
[9] = Induction of NO release per mol of compound in phosphate buffer at pH 7.4 at 100 uM after 6 hrs by Griess assay; format: physicochemical; settings: pH 7.4, 6 h
[10] = Induction of NO release per mol of compound in phosphate buffer at pH 7.4 at 100 uM after 2 hrs by Griess assay; format: physicochemical; settings: pH 7.4, 2 h
[11] = Induction of NO release per mol of compound in phosphate buffer at pH 7.4 at 100 uM after 4 hrs by Griess assay; format: physicochemical; settings: pH 7.4, 4 h
[12] = Induction of NO release per mol of compound in phosphate buffer at pH 7.4 at 100 uM after 5 hrs by Griess assay; format: physicochemical; settings: pH 7.4, 5 h
[13] = Induction of NO release per mol of compound in phosphate buffer at pH 7.4 at 100 uM after 1 hr by Griess assay; format: physicochemical; settings: pH 7.4, 1 h
Rattus norvegicus [14] = experiment: Reduction in 1-(2-Bromoacetyl)-5-(2-furyl)-4,5-dihydro-3-(3,4-dimethoxyphenyl)-1H-pyrazole-induced ulcer in albino rat at 100 mg/kg, po after 5 hrs; format: functional; design: scale not given: the % may be the effect or the level left
Rattus norvegicus [15] = experiment: Reduction in 1-(2-Bromopropionyl)-4,5-dihydro-5-(2,4-dimethoxyphenyl)-3-(3,4-dimethoxyphenyl)-1H-pyrazole-induced ulcer in albino rat at 100 mg/kg, po after 5 hrs; format: functional; design: scale not given: the % may be the effect or the level left
Rattus norvegicus [16] = experiment: Reduction in 4,5-Dihydro-5-(2,4-dimethoxyphenyl)-3-(3,4-dimethoxyphenyl)-1H-pyrazole-induced ulcer in albino rat at 100 mg/kg, po after 5 hrs; format: functional; design: scale not given: the % may be the effect or the level left
Rattus norvegicus [17] = experiment: Reduction in 1-(2-Bromoacetyl)-4,5-dihydro-5-(2,4-dimethoxyphenyl)-3-(3,4-dimethoxyphenyl)-1H-pyrazole-induced ulcer in albino rat at 100 mg/kg, po after 5 hrs; format: functional; design: scale not given: the % may be the effect or the level left
Rattus norvegicus [18] = experiment: Reduction in 5-(2,6-Dichlorophenyl)-4,5-dihydro-3-(4-methoxyphenyl)-1H-pyrazole-induced ulcer in albino rat at 100 mg/kg, po after 5 hrs; format: functional; design: scale not given: the % may be the effect or the level left
Rattus norvegicus [19] = experiment: Reduction in 1-(2-Bromoacetyl)-5-(2,6-dichlorophenyl)-4,5-dihydro-3-(4-methoxyphenyl)-1H-pyrazole-induced ulcer in albino rat at 100 mg/kg, po after 5 hrs; format: functional; design: scale not given: the % may be the effect or the level left

SMILES | Activity [1] | inhibition in vivo at 100 mg/kg (Rattus norvegicus [2]) [%] | inhibition in vivo at 100 mg/kg (Rattus norvegicus [3]) [%] | inhibition in vivo at 100 mg/kg (Rattus norvegicus [4]) [%] | UI (Rattus norvegicus [5]) | NO release [6] [mol/mol] | Activity (Rattus norvegicus [7]) [%] | Activity (Rattus norvegicus [8]) [%] | NO release [9] [mol/mol] | NO release [10] [mol/mol] | NO release [11] [mol/mol] | NO release [12] [mol/mol] | NO release [13] [mol/mol] | Activity (Rattus norvegicus [14]) [%] | Activity (Rattus norvegicus [15]) [%] | Activity (Rattus norvegicus [16]) [%] | Activity (Rattus norvegicus [17]) [%] | Activity (Rattus norvegicus [18]) [%] | Activity (Rattus norvegicus [19]) [%]
COc1ccc(C2=NNC(c3ccco3)C2)cc1OC (stereo not drawn) | Not Active | 53 | 45 | 60 | 26.5 |  |  |  |  |  |  |  |  |  |  |  |  |  | 
COc1ccc(C2=NN(C(=O)CBr)C(c3c(Cl)cccc3Cl)C2)cc1 (stereo not drawn) |  | 49 | 43 | 7 | 6 |  |  |  |  |  |  |  |  |  |  |  |  |  | 
COc1ccc(C2=NN(C(=O)CBr)C(c3c(Cl)cccc3Cl)C2)cc1OC (stereo not drawn) |  | 58 | 48 | 69 | 3 |  |  |  |  |  |  |  |  |  |  |  |  |  | 
COc1ccc(C2=NN(C(=O)C(C)O[N+](=O)[O-])C(c3ccco3)C2)cc1OC (stereo not drawn) | Not Active | 39 | 35 | 42 | 7 | 0.398 | 30 | 73 | 0.087 | 0.19 | 0.2 | 0.125 | 0.078 |  |  |  |  |  | 
COc1ccc(C2=NNC(c3c(Cl)cccc3Cl)C2)cc1 (stereo not drawn) |  | 58 | 54 | 60 | 31 |  |  |  |  |  |  |  |  |  |  |  |  |  | 
COc1ccc(C2=NN(C(=O)CNc3ccc(/C(C)=N/O)cc3)C(c3ccco3)C2)cc1OC (stereo not drawn) | Not Active | 46 | 38 | 46 | 0 | 0.138 |  | 96 | 0.267 | 0.128 | 0.167 | 0.277 | 0.118 | 92 |  |  |  |  | 
COc1ccc(C2CC(c3ccc(OC)c(OC)c3)=NN2)c(OC)c1 (stereo not drawn) |  | 39 | 38 | 42 | 7 |  |  |  |  |  |  |  |  |  |  |  |  |  | 
COc1ccc(C2=NN(C(=O)CBr)C(c3ccco3)C2)cc1OC (stereo not drawn) | Not Active | 46 | 38 | 51 | 13 |  |  |  |  |  |  |  |  |  |  |  |  |  | 
COc1ccc(C2CC(c3ccc(OC)c(OC)c3)=NN2C(=O)C(C)Br)c(OC)c1 (stereo not drawn) |  | 63 | 58 | 69 | 23 |  |  |  |  |  |  |  |  |  |  |  |  |  | 
COc1ccc(C2CC(c3ccc(OC)c(OC)c3)=NN2C(=O)CBr)c(OC)c1 (stereo not drawn) |  | 67 | 53 | 71 | 30 |  |  |  |  |  |  |  |  |  |  |  |  |  | 
COc1ccc(C2CC(c3ccc(OC)c(OC)c3)=NN2C(=O)C(C)O[N+](=O)[O-])c(OC)c1 (stereo not drawn) | Not Active | 61 | 44 | 56 | 3 | 0.438 |  |  | 0.09 | 0.16 | 0.128 | 0.065 | 0.098 |  | 86 | 57 |  |  | 
COc1ccc(C2CC(c3ccc(OC)c(OC)c3)=NN2C(=O)CO[N+](=O)[O-])c(OC)c1 (stereo not drawn) | Not Active | 48 | 38 | 58 | 5 | 0.433 |  |  | 0.588 | 0.391 | 0.523 | 0.78 | 0.329 |  |  | 28 | 83 |  | 
COc1ccc(C2=NN(C(=O)C(C)Br)C(c3c(Cl)cccc3Cl)C2)cc1OC (stereo not drawn) |  | 56 | 51 | 60 | 10 |  |  |  |  |  |  |  |  |  |  |  |  |  | 
COc1ccc(C2=NN(C(=O)C(C)O[N+](=O)[O-])C(c3c(Cl)cccc3Cl)C2)cc1OC (stereo not drawn) | Not Active | 53 | 47 | 55 | 7 | 0.501 |  |  | 0.114 | 0.19 | 0.255 | 0.145 | 0.123 |  |  |  |  |  | 
COc1ccc(C2=NN(C(=O)CO[N+](=O)[O-])C(c3c(Cl)cccc3Cl)C2)cc1OC (stereo not drawn) | Not Active | 49 | 40 | 58 | 4 | 0.516 |  |  | 0.625 | 0.395 | 0.555 | 0.738 | 0.147 |  |  |  |  |  | 
COc1ccc(C2=NN(C(=O)CO[N+](=O)[O-])C(c3ccco3)C2)cc1OC (stereo not drawn) | Not Active | 37 | 32 | 43 | 2 | 0.281 |  | 92 | 0.535 | 0.211 | 0.483 | 0.614 | 0.126 | 84 |  |  |  |  | 
COc1ccc(C2=NN(C(=O)C(C)Br)C(c3ccco3)C2)cc1OC (stereo not drawn) |  | 36 | 22 | 42 | 10 |  |  |  |  |  |  |  |  |  |  |  |  |  | 
COc1ccc(C2=NN(C(=O)CO[N+](=O)[O-])C(c3c(Cl)cccc3Cl)C2)cc1 (stereo not drawn) | Not Active | 42 | 34 | 52 | 0 | 0.356 |  |  | 0.593 | 0.295 | 0.451 | 0.656 | 0.195 |  |  |  |  | 96 | 93
COc1ccc(C2CC(c3ccc(OC)c(OC)c3)=NN2C(=O)CNc2ccc(/C(C)=N/O)cc2)c(OC)c1 (stereo not drawn) | Not Active | 44 | 27 | 46 | 2 | 0.148 |  |  | 0.268 | 0.114 | 0.194 | 0.302 | 0.137 |  |  | 71 | 93 |  | 
COc1ccc(C2=NNC(c3c(Cl)cccc3Cl)C2)cc1OC (stereo not drawn) |  | 49 | 26 | 58 | 3 |  |  |  |  |  |  |  |  |  |  |  |  |  | 
COc1ccc2c(c1)c(CC(=O)O)c(C)n2C(=O)c1ccc(Cl)cc1 [INDOMETHACIN] |  | 67 | 58 | 82 | 43.5 |  |  |  |  |  |  |  |  |  |  |  |  |  | 

— ChEMBL document CHEMBL1152474, “Synthesis and investigation of anti-inflammatory activity and gastric ulcerogenicity of novel nitric oxide-donating pyrazoline derivatives” (Eur J Med Chem, 2009)
